Reference: US6399618B1, “Compositions and methods for modulating sexual activity” (priority 1997, dated 2002)
Counter-ions that a name gives are not always drawn. Marks after values point to notes of the source that are not given here.

Columns and labels:
male primates = assay: Sexual behavior in male primates, paired observation study (penile response grades); format: in vivo, macaca fascilaris; details: 1.0 mg/kg ip; N=3; observed 1 hour
Protocol: Monkeys used for testing were separated from the cluster of cages and treated and observed in pairs in the middle of the housing environment.
N=3 for all drug-treated animals, while N=18 for saline-treated animals. […] Data are expressed as the number of test animals having a particular grade of penile response. Penile responses were scored every 10 sec for 1 hour according to the following scale:
Grade 0=glans are hidden from the view
Grade 1=glans are clearly visible
Grade 2=penis is extended
Grade 4=erection with masturbation
Grade 5=erection with masturbation and ejaculation

[1] = test system: noradrenaline pre-contracted rabbit CC; assay: Direct action on penile erection: tone of corpus cavernosal muscle strips in organ bath; details: concentration from 10^-8 M to 10^-4 M; n=6
Protocol: Corpus cavernosal (CC) muscle strips were prepared from penises obtained from rabbit (n=6). CC strips were dissected free from tunica albungia and mounted in 10 or 25 mL organ baths containing Tyrode solution saturated with 95%O2/5% CO2 mixture.

male rats [2] = assay: Rat sexual behavior, proerectile actions (injected); format: in vivo, SD rats; details: for Erections/60 minutes / Latency to the first erection: mean±sem; for Erections/60 minutes / Latency to the first erection / Responders: n=10
Protocol: Male SD rats (350-450 g; n=10 per group) were injected with increasing doses of XVIb (4.0-64.0 mg/kg), XVIa (1.0, 4.0 or 16 mg/kg) or saline and observed 5 minutes later, in groups of 5, for the number of erections and the time to the first erection, over a 60 minutes observation period.
In Table 2, the effects of XVIb, XVIa and saline on erection in male rats is indicated. Data is expressed as the mean±sem for 10 test animals. Data marked with an asterisk “*” indicate significant difference from saline (α<0.05) as determined by ANOVA with Tukey test for multiple comparisons.

male rats [3] = assay: Rat sexual behavior, proerectile actions after oral administration; format: in vivo, SD rats
Protocol: Male SD rats (250-300 g) were administered increasing doses of XVIb (30-100 mg/kg in distilled water, per os) or distilled water only via a feeding tube, and observed 5 minutes later for the number of erections (as characterized by penile grooming) over a 60 minute observation period. Six rats at a time, housed singly, were observed by two observers. Treatments were administered in a standard randomized and double blinded manner.

male rats [4] = assay: Rat procopulatory actions (copulatory behavior with receptive female); format: in vivo, Long-Evans rats
Protocol: Male Long-Evans rats (300-600 g; n=15 per group) were injected with saline or XVIb (1.5-30.5 mg/kg; ip) 5 minutes prior to being paired with a female rat sexually receptive by administration of estradiol benzoate (25 μg; 48 hours prior to testing) and progesterone (1 mg/kg; 4 hours prior to testing). Mount latency, intromission latency, ejaculation latency, mounts, intromissions, ejaculations and post ejaculatory interval were recorded over a 30 minutes observation period.
In Table 3, the effect of compound XVIb on copulatory behavior in male rats is shown. Data are expressed as mean (sem for 15 test animals). Latency is the time in seconds to appearance of that behavior. Ejaculations are the number of such events during 30 minutes of observation. Intromissions are the number of such events before ejaculation. Post ejaculatory interval is the time in seconds from ejaculation on intromission to the first mount of the next copulatory sequence. P values derived from two-tailed t-test for significance between mean values (α<0.05).

[5] = 15 mg/kg ip, n=15, 30 minutes observation

Question: `CN1CCN(C(=O)Cc2ccc3ccccc3c2)CC1` [Compound XVIb, 1-Methyl-4(2-naphthaleneacetyl)piperazine monohydrochloride] was tested. Which “number of test animals having Grade 0 penile response (glans are hidden from the view)” value (male primates) did it give?
Answer: The value was 1.

Question: What about the “number of test animals having Grade 1 penile response (glans are clearly visible)” value (male primates) of the same molecule?
Answer: Its value is 2.

Question: And the “number of test animals having Grade 2 penile response (penis is extended)” value (male primates)?
Answer: The value was 2.

Question: What about the “number of test animals having Grade 3 penile response (full erection)” value (male primates) of the same molecule?
Answer: Its value is 2.

Question: And the “number of test animals having Grade 4 penile response (erection with masturbation)” value (male primates)?
Answer: The value was 1.

Question: What about the “number of test animals having Grade 5 penile response (erection with masturbation and ejaculation)” value (male primates) of the same molecule?
Answer: Its value is 0.

Question: And the “effect on tone of noradrenaline pre-contracted rabbit CC” value [1]?
Answer: Its value is “failed to reduce tone”.

Question: And the Erections/60 minutes (male rats [2]; 4.0 mg/kg)?
Answer: Its Erections/60 minutes is 2.1 ± 0.4.

Question: What about the “Latency to the first erection” value (male rats [2]; 4.0 mg/kg) of the same molecule?
Answer: The value was 2390 ± 238 s.

Question: And the Responders (male rats [2]; 4.0 mg/kg)?
Answer: The Responders was 100%.

Question: What about the Erections/60 minutes (male rats [2]; 8.0 mg/kg) of the same molecule?
Answer: The Erections/60 minutes was 5.1 ± 0.6* #.

Question: And the “Latency to the first erection” value (male rats [2]; 8.0 mg/kg)?
Answer: Its value is 1299 ± 214 s.

Question: And the Responders (male rats [2]; 8.0 mg/kg)?
Answer: The Responders was 100%.

Question: And the Erections/60 minutes (male rats [2]; 16.0 mg/kg)?
Answer: The Erections/60 minutes was 7.7 ± 0.4* #.

Question: And the “Latency to the first erection” value (male rats [2]; 16.0 mg/kg)?
Answer: The value was 654 ± 108* sec.

Question: And the Responders (male rats [2]; 16.0 mg/kg)?
Answer: Its Responders is 100%.

Question: What about the Erections/60 minutes (male rats [2]; 32.0 mg/kg) of the same molecule?
Answer: Its Erections/60 minutes is 2.5 ± 0.2.

Question: And the “Latency to the first erection” value (male rats [2]; 32.0 mg/kg)?
Answer: Its value is 1046 ± 64* sec.

Question: And the Responders (male rats [2]; 32.0 mg/kg)?
Answer: Its Responders is 100%.

Question: And the Erections/60 minutes (male rats [2]; 64.0 mg/kg)?
Answer: The Erections/60 minutes was 2.7 ± 0.5.

Question: What about the “Latency to the first erection” value (male rats [2]; 64.0 mg/kg) of the same molecule?
Answer: The value was 3319 ± 170* sec.

Question: And the Responders (male rats [2]; 64.0 mg/kg)?
Answer: The Responders was 100%.

Question: What about the “effect on penile erections (in words)” value (male rats [2]; 60 minutes observation) of the same molecule?
Answer: The value was “produced erections in rats in a bell shaped dose-response fashion”.

Question: What about the “dose at which the maximal effect on erections was observed” value (male rats [2]; doses 4.0-64.0 mg/kg) of the same molecule?
Answer: Its value is 16 mg/kg.

Question: What about the “dose with minimal time to the first erection” value (male rats [2]; doses 4.0-64.0 mg/kg) of the same molecule?
Answer: The value was 16 mg/kg.

Question: What about the Responders (male rats [3]; 30 mg/kg p.o.) of the same molecule?
Answer: Its Responders is 100%.

Question: What about the “maximum number of erections/rat” value (male rats [3]; 30 mg/kg p.o.) of the same molecule?
Answer: Its value is 3 h⁻¹.

Question: And the Responders (male rats [3]; 100 mg/kg p.o.)?
Answer: Its Responders is 100%.

Question: And the “maximum number of erections/rat” value (male rats [3]; 100 mg/kg p.o.)?
Answer: Its value is 5 h⁻¹.

Question: What about the “number of intromissions (in words)” value (male rats [4]; 7.5 mg/kg and 30.5 mg/kg only, data is not shown) of the same molecule?
Answer: Its value is “reducing the number of intromissions”.

Question: And the Post ejaculatory interval (male rats [4]; 15 mg/kg ip, n=15)?
Answer: Its Post ejaculatory interval is 426.6 ± 28.5 s.

Question: What about the Ejaculation latency (male rats [4]; [5]) of the same molecule?
Answer: The Ejaculation latency was 330.9 ± 31.5 s.

Question: What about the Intromission latency (male rats [4]; [5]) of the same molecule?
Answer: Its Intromission latency is 405.1 ± 88.0 s.

Question: And the Mount latency (male rats [4]; [5])?
Answer: Its Mount latency is 204.5 ± 31.9 s.

Question: And the Intromissions (male rats [4]; 15 mg/kg ip, n=15, before ejaculation)?
Answer: The Intromissions was 6.9 ± 0.7.

Question: And the ejaculations (male rats [4]; 15 mg/kg ip, n=15, during 30 minutes of observation)?
Answer: Its ejaculations is 4.7 ± 0.2.

Question: And the “Post ejaculatory interval (in words)” value (male rats [4]; any of doses tested (1.5-30.5 mg/kg ip))?
Answer: Its value is “not affected”.

Question: What about the “copulatory behaviors (in words)” value (male rats [4]; doses above and below 15 mg/kg) of the same molecule?
Answer: Its value is “without significant effects”.
